Where two headings read alike, the source gives them in different places. One block for each molecule: values may come before it.
Tests used:
BPH-1 (UZ) = assay: Cytostatic assay, BPH-1 (UZ); type: cell-based; conditions: Homo sapiens, Table 4
How it was run: (§1)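 Proliferation under compound exposure was measured by counting cells (Coulter) after 48 h to 96 h at 37° C; the period varied with the line. Starting density was 5-7.5×10^4 cells per well in a humidified CO2 atmosphere.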

[1] = system: protein synthesis in Raji cells; assay: Antimetabolic activity assay, [4,5-3H]leucine incorporation (protein synthesis), Raji; type: cell-based; conditions: Homo sapiens, incorporation into TCA-insoluble material
Description: [The procedure below names another cell line; the source lists this cell line under the same test.] (§2) Radiolabeled precursors of DNA synthesis ([^3H-methyl]dThd), RNA synthesis ([5-^3H]Urd), and protein synthesis ([4,5-^3H]leu) were added to 10^5 CEM cell cultures in the 200 μl-wells of a microtiter plate at 1 μCi for each precursor in the presence of varying concentrations of the test compounds (5-fold dilution series). The cells were allowed to proliferate for 20 hrs at 37° C. in a humidified, CO2-controlled atmosphere. At the end of the incubation period, the contents of the wells were brought onto 25-mm glass fiber filters and further processed for measurement of acid-insoluble radioactivity.

[2] = system: RNA synthesis in Raji cells; assay: Antimetabolic activity assay, [5-3H]uridine incorporation (RNA synthesis), Raji; type: cell-based; conditions: Homo sapiens, incorporation into TCA-insoluble material
Description: [The procedure below names another cell line; the source lists this cell line under the same test.] as §2

HUT-78 cells = assay: Cytostatic assay, HUT-78; type: cell-based; conditions: Homo sapiens, HuT78; Table 2
How it was run: as §1

[3] = system: 293T embryonic kidney cells; assay: Cytostatic assay, 293T; type: cell-based; conditions: Homo sapiens, HEK-293T; Table 3
How it was run: as §1

[4] = system: HEL embryonic lung fibroblast cells; assay: Cytostatic assay, HEL; type: cell-based; conditions: Homo sapiens, Table 3
How it was run: as §1

Sup T1 cells = assay: Cytostatic assay, Sup T1; type: cell-based; conditions: Homo sapiens, Table 2, read-out: Cytostatic activity (μM) Sup T 1
How it was run: as §1

MT-4 cells = assay: Cytostatic assay, MT-4; type: cell-based; conditions: Homo sapiens, MT4; Table 2
How it was run: as §1

[5] = system: HL60, human leukemia cells; assay: Cytostatic assay, HL-60; type: cell-based; conditions: Table 2
How it was run: as §1

[6] = system: FM3A mammary carcinoma cells; assay: Cytostatic assay, FM3A; type: cell-based, murine; conditions: Mus musculus, Table 3
How it was run: as §1

[7] = system: HT29 colorectal carcinoma cells; assay: Cytostatic assay, HT29; type: cell-based; conditions: Homo sapiens, HT-29; Table 3
How it was run: as §1

[8] = system: DNA synthesis in Raji cells; assay: Antimetabolic activity assay, [CH3-3H]dThd incorporation (DNA synthesis), Raji; type: cell-based; conditions: Homo sapiens, incorporation into TCA-insoluble material
Description: [The procedure below names another cell line; the source lists this cell line under the same test.] as §2

[9] = system: U937, human monocytic cells; assay: Cytostatic assay, U937; type: cell-based; conditions: U-937, Table 2
How it was run: as §1

Molt4/C8 cells = assay: Cytostatic assay, Molt4/C8; type: cell-based; conditions: Table 2
How it was run: as §1

[10] = system: protein synthesis in CEM cells; assay: Antimetabolic activity assay, [4,5-3H]leucine incorporation (protein synthesis), CEM; type: cell-based; conditions: Homo sapiens, CCRF-CEM, incorporation into TCA-insoluble material
Description: as §2

[11] = system: BAEC aortic endothelial cells; assay: Cytostatic assay, BAEC; type: cell-based, bovine; conditions: Bos taurus, Table 3
How it was run: as §1

U87 glioma cells = assay: Cytostatic assay, U87; type: cell-based; conditions: Homo sapiens, U-87 MG; Table 3
How it was run: as §1

[12] = system: LNCaP (UZ) prostate cancer cells; assay: Cytostatic assay, LNCaP (UZ); type: cell-based; conditions: Homo sapiens, Table 4
How it was run: as §1

MT-2 cells = assay: Cytostatic assay, MT-2; type: cell-based; conditions: Homo sapiens, MT2; Table 2
How it was run: as §1

[13] = system: Raji, human B-lymphoma cells; assay: Cytostatic assay, Raji; type: cell-based; conditions: Table 2
How it was run: as §1

Huh-7 hepatoma cells = assay: Cytostatic assay, Huh-7; type: cell-based; conditions: Homo sapiens, Table 4
How it was run: as §1

C8166 cells = assay: Cytostatic assay, C8166; type: cell-based; conditions: Homo sapiens, Table 2
How it was run: as §1

[14] = system: HeLa cervix carcinoma cells; assay: Cytostatic assay, HeLa; type: cell-based, human; conditions: Homo sapiens; Table 3; read-out: Cytostatic activity (μM) Hela
How it was run: as §1

[15] = system: MCF-7 mammary carcinoma cells; assay: Cytostatic assay, MCF-7; type: cell-based; conditions: Homo sapiens, MCF7; Table 3
How it was run: as §1

[16] = system: broad variety of tumor cell lines; assay: Cytostatic assays, summary over the panel of cell lines (Tables 2-4); type: cell-based
Description: To each well of a 96-well microtiter plate were added 5-7.5×10^4 cells and a given amount of the test compound. The cells were allowed to proliferate for 48 h to 96 h (depending on the nature of the cell line) at 37° C. in a humidified CO2-controlled atmosphere. At the end of the incubation period, the cells were counted in a Coulter Counter (Coulter Electronics Ltd, Harpenden Herts, United Kingdom).

[17] = system: 22Rv1 (UZ) prostate cancer cells; assay: Cytostatic assay, 22Rv1 (UZ); type: cell-based; conditions: Homo sapiens, Table 4
How it was run: as §1

L1210 cells = assay: Cytostatic assay, L1210; type: cell-based; conditions: Mus musculus, Table 2
How it was run: as §1

HepG2C3A hepatoma cells = assay: Cytostatic assay, HepG2C3A; type: cell-based; conditions: Homo sapiens, HepG2/C3A; Table 4
How it was run: as §1

[18] = system: Caki-1 kidney carcinoma cells; assay: Cytostatic assay, Caki-1; type: cell-based; conditions: Homo sapiens, Table 3
How it was run: as §1

[19] = system: DNA synthesis in CEM cells; assay: Antimetabolic activity assay, [CH3-3H]dThd incorporation (DNA synthesis), CEM; type: cell-based; conditions: Homo sapiens, CCRF-CEM, incorporation into TCA-insoluble material
Description: as §2

[20] = system: PC3 (rega) prostate cancer cells; assay: Cytostatic assay, PC3 (rega); type: cell-based; conditions: Table 4
How it was run: as §1

[21] = system: Caki-2 kidney carcinoma cells; assay: Cytostatic assay, Caki-2; type: cell-based; conditions: Homo sapiens, Table 3
How it was run: as §1

[22] = system: RNA synthesis in CEM cells; assay: Antimetabolic activity assay, [5-3H]uridine incorporation (RNA synthesis), CEM; type: cell-based; conditions: Homo sapiens, CCRF-CEM, incorporation into TCA-insoluble material
Description: as §2

[23] = system: PNT1A (UZ) prostate cells; assay: Cytostatic assay, PNT1A (UZ); type: cell-based; conditions: Homo sapiens, Table 4
How it was run: as §1

[24] = system: DU145 (UZ) prostate cancer cells; assay: Cytostatic assay, DU145 (UZ); type: cell-based; conditions: Homo sapiens, DU-145; Table 4
How it was run: as §1

[25] = system: PC-3 (UZ) prostate cancer cells; assay: Cytostatic assay, PC-3 (UZ); type: cell-based; conditions: Table 4
How it was run: as §1

[26] = system: THP-1, human monocytic cells; assay: Cytostatic assay, THP-1; type: cell-based; conditions: Table 2
How it was run: as §1

PLC/PRF/5 hepatoma cells = assay: Cytostatic assay, PLC/PRF/5; type: cell-based; conditions: Homo sapiens, Table 4
How it was run: as §1

CEM cells = assay: Cytostatic assay, CEM; type: cell-based; conditions: Homo sapiens, CCRF-CEM
How it was run: as §1

[27] = system: OST TK- osteosarcoma cells; assay: Cytostatic assay, OST TK-; type: cell-based; conditions: Homo sapiens; Table 3
How it was run: as §1

[28] = Table 2, read-out: Cytostatic activity (μM) CEM

IC50 (BPH-1 (UZ)): < 0.032 µM
IC50 [1]: 39 ± 36 µM
IC50 [2]: 90 ± 14 µM
IC50 (HUT-78 cells): 0.062 ± 0.039 µM
IC50 (Sup T1 cells): 0.017 ± 0.012 µM
IC50 [5]: 0.024 ± 0.004 µM
IC50 [6]: 0.05 ± 0.046 µM
IC50 [7]: 0.046 ± 0.012 µM
IC50 [8]: ≥ 100 µM
IC50 [9]: 0.036 ± 0.001 µM
IC50 (Molt4/C8 cells): 0.058 ± 0.056 µM
IC50 [10]: 20 µM
IC50 [11]: < 0.032 µM
IC50 (U87 glioma cells): 0.038 ± 0.008 µM
IC50 [12]: < 0.032 µM
IC50 (MT-2 cells): 0.027 ± 0.001 µM
IC50 [13]: 0.063 ± 0.013 µM
IC50 (Huh-7 hepatoma cells): < 0.16 µM
IC50 (C8166 cells): 0.021 ± 0.009 µM
IC50 [14]: 0.13 ± 0.06 µM
IC50 [15]: 0.026 ± 0.0014 µM
IC50 ([16]; range over the cell lines of Tables 2-4, read-out: IC50 range (antiproliferative activity)): 0.02 to 0.13 µM
IC50 [17]: < 0.032 µM
IC50 (L1210 cells): 0.064 ± 0.025 µM
IC50 (HepG2C3A hepatoma cells): 0.29 ± 0.18 µM
IC50 [18]: 0.016 ± 0.001 µM
IC50 [19]: > 100 µM
IC50 [20]: < 0.032 µM
IC50 [21]: 0.042 ± 0.004 µM
IC50 [22]: 44 ± 11 µM
IC50 [23]: < 0.032 µM
IC50 [24]: 0.061 ± 0.016 µM
IC50 [25]: < 0.032 µM
IC50 [26]: 0.022 ± 0.003 µM
IC50 (PLC/PRF/5 hepatoma cells): 0.041 ± 0.013 µM
IC50 (CEM cells; Table 1a, read-out: IC50 μM (CEM)): 0.015 µM
IC50 (CEM cells; [28]): 0.015 µM
SMILES: COc1ccc(OC)c(CCc2cc(C#N)c(N)s2)c1 [TR589, 2-Amino-5-[2-(2,5-dimethoxy-phenyl)-ethyl]-thiophene-3-carbonitrile]
IC50 [3]: < 0.032 µM
IC50 [4]: < 0.032 µM
IC50 (MT-4 cells): 0.086 ± 0.048 µM
fold more cytostatic than the corresponding -COOEt-containing compound 16b [16]: 50 fold

IC50 (BPH-1 (UZ)): 74 ± 4.2 µM
IC50 [1]: 94 ± 7 µM
IC50 [2]: ≥ 100 µM
IC50 [27]: 41 ± 0.71 µM
IC50 (HUT-78 cells): 107 ± 70 µM
IC50 (Sup T1 cells): 23 ± 2.1 µM
IC50 [5]: 11 ± 2.2 µM
IC50 [6]: 53 ± 7 µM
IC50 [7]: > 100 µM
IC50 [8]: ≥ 100 µM
IC50 [9]: 80 ± 5.7 µM
IC50 (Molt4/C8 cells): 6.8 µM
IC50 [10]: 23 ± 14 µM
IC50 [11]: > 100 µM
IC50 (U87 glioma cells): > 100 µM
IC50 [12]: 3.8 ± 2.9 µM
IC50 (MT-2 cells): 79 ± 17 µM
IC50 [13]: 55 ± 12 µM
IC50 (Huh-7 hepatoma cells): 28 ± 17 µM
IC50 (C8166 cells): 143 ± 32 µM
IC50 [14]: 45 ± 6 µM
IC50 [15]: 60 ± 0.7 µM
IC50 [17]: 33 ± 0.71 µM
IC50 (L1210 cells): 40 µM
IC50 (HepG2C3A hepatoma cells): 30 ± 0.71 µM
IC50 [18]: 62 ± 12 µM
IC50 [19]: 68 ± 14 µM
IC50 [20]: 8.6 ± 3.4 µM
IC50 [21]: 16 ± 10 µM
IC50 [22]: 39 ± 32 µM
IC50 [23]: 45 µM
IC50 [24]: 34 ± 7.1 µM
IC50 [25]: 8.5 ± 3.5 µM
IC50 [26]: 31 ± 13 µM
IC50 (PLC/PRF/5 hepatoma cells): 39 ± 5.7 µM
IC50 (CEM cells; [28]): 20 ± 4 µM
SMILES: CCOC(=O)c1cc(CCc2ccccc2OC)sc1N [TR542, 2-Amino-5-[2-(2-methoxy-phenyl)-ethyl]-thiophene-3-carboxylic acid ethyl ester]
IC50 [3]: > 100 µM
IC50 [4]: 43 ± 4.9 µM
IC50 (MT-4 cells): 41 ± 5.7 µM
